Tested on: Lewis lung carcinoma (solid)
Test: Antitumor effect on mouse experimental tumors (tumor inhibitory ratio by tumor weight)
Format: in vivo
Details: Dose 100 mg/kg, route i.p., schedule 5q2d (days 1, 3, 5, 7 and 9); tumors removed and weighed at day 13; BDF1 male mice
Protocol: The antitumor activities of compounds of the present invention were estimated according to the methods described in "Cancer chemotheraphy reports" Part 3, Vol. 3, (No. 2) p.13 (1972).
BDF1 male mice, 5 weeks old, weighing between 18 and 22 grams were used. Each test group was composed of 6 to 7 mice. Two million cells of Lewis lung carcinoma were injected in the hind leg. The drug was administered intraperitoneally at days 1, 3, 5, 7 and 9 (or 5q2d).
After killing the mice at day 13, tumors were removed and weighed. The tumor inhibitory ratio was calculated according to the following formula: [formula]

| Compound | Inhibition Ratio (%) Lewis lung carcinoma (solid) |
| --- | --- |
| NC(=O)c1[nH]cnc1OC(=O)c1ccc(-c2ccccc2)cc1 [5-Carbamoyl-1H-imidazole-4-yl p-phenylbenzoate] | 77.0% |
| COc1cc(C(=O)Oc2nc[nH]c2C(N)=O)ccc1C [5-Carbamoyl-1H-imidazole-4-yl 3'-methoxy-4'-methylbenzoate] | 89.4% |
| NC(=O)c1[nH]cnc1OC(=O)C=Cc1cccc([N+](=O)[O-])c1 [5-Carbamoyl-1H-imidazole-4-yl m-nitrocinnamate] | 90% |
| NC(=O)c1[nH]cnc1OC(=O)C=Cc1ccc(Cl)cc1 [5-Carbamoyl-1H-imidazole-4-yl p-chlorocinnamate] | 90% |
| COc1ccc(C(=O)Oc2nc[nH]c2C(N)=O)cc1OC [5-Carbamoyl-1H-imidazole-4-yl 3',4'-dimethoxy-benzoate] | 83.1% |

Reference: EP0075629A1, “Imidazole derivatives, their preparation, and their pharmaceutical compositions” (Sumitomo Chemical Industries Ltd., priority 1981, dated 1983)
